The values below come from article PMC12400318 (Biochemical Journal, 2025).

The target in data set [1] is T1, T. melanesiensis CtfAB (T. mel CtfAB; WT-CtfAB) (Thermosipho melanesiensis, UniProt A6LM39+A6LM40, A6LM39:E46D). Put plainly: hydrolase activity assay. The class given is biochemical. Set-up: gene Tmel_1136; co-expressed in E. coli Rosetta 2(DE3)pLysS; N-terminal 6xHis on CtfA, untagged CtfB; subunits Mr 23-25 kDa; heterotetramer (two CtfA-CtfB heterodimers) in crystals. Conditions: CoA hydrolase instead of transferase; acetate not required.

In data set [2] the target is T1, T. melanesiensis CtfAB (T. mel CtfAB; WT-CtfAB). Set-up: gene Tmel_1136. The settings on record: acetate from crystallisation buffer; pocket next to residue 46.
Data set [3] deals with T2, T. melanesiensis CtfAB (T. mel CtfAB; WT-CtfAB) (Thermosipho melanesiensis, UniProt A6LM39+A6LM40).
T2 sequence (A6LM40 1-217): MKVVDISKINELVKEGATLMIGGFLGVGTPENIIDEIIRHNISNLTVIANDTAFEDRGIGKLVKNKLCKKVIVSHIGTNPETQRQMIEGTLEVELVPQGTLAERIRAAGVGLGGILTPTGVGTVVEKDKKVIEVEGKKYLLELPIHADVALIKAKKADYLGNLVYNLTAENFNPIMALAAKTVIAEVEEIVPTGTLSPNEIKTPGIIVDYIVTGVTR
T2 sequence (A6LM39 1-214): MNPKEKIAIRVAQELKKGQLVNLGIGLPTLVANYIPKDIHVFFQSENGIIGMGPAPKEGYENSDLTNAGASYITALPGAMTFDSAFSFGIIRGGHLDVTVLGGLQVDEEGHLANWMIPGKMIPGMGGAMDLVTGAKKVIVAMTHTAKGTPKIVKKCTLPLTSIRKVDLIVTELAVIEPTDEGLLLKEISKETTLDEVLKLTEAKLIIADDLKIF
Set-up: gene Tmel_1136. Conditions: rate-equation constant of substrate B (acetate) in the forward fit, not a separate inhibition assay; 100 mM Tris-HCl, 40 mM MgCl2, 5% glycerol, pH 7.5, 65 °C.

Data set [4] deals with T3, T. melanesiensis CtfAB (T. mel CtfAB; WT-CtfAB) (Thermosipho melanesiensis, UniProt A6LM39+A6LM40, A6LM39:F42T/A6LM39:S45C).
T3 construct: gene Tmel_1136; co-expressed in E. coli Rosetta 2(DE3)pLysS; N-terminal 6xHis on CtfA, untagged CtfB; subunits Mr 23-25 kDa; heterotetramer (two CtfA-CtfB heterodimers) in crystals
Nature of the data set: X-ray crystal structure, […] Å. The class given is binding.

In data set [5] the target is T4, T. melanesiensis CtfAB (T. mel CtfAB; WT-CtfAB) (Thermosipho melanesiensis, UniProt A6LM39+A6LM40, A6LM39:E46S).
T4 construct: gene Tmel_1136
The settings on record: acetate from crystallisation buffer; second acetate in place of the catalytic glutamate carboxylate.

Data set [6] concerns the target T2, T. melanesiensis CtfAB (T. mel CtfAB; WT-CtfAB). Nature of the data set: acetoacetyl-CoA Mg-enolate consumption at […] nm; global ping-pong bi-bi fit with inhibition. The class given is biochemical. Set-up: gene Tmel_1136; co-expressed in E. coli Rosetta 2(DE3)pLysS; N-terminal 6xHis on CtfA, untagged CtfB; subunits Mr 23-25 kDa; heterotetramer (two CtfA-CtfB heterodimers) in crystals. Conditions: read-out: Ki,Q.

Substrate in data set [7]: CC(=O)O
Nature of the data set: purified protein. The settings on record: forward reaction, co-substrate acetoacetyl-CoA (0.025-0.4 mM), 100 mM Tris-HCl, 40 mM MgCl2, 5% glycerol, pH 7.5, 65 °C.

Substrate in data set [8]: CC(=O)CC(=O)O
Put plainly: purified protein. Format: biochemical, Thermosipho melanesiensis. Conditions: reverse reaction, co-substrate acetyl-CoA (0.033-0.4 mM), 100 mM Tris-HCl, 40 mM MgCl2, 5% glycerol, pH 7.5, 65 °C.

Substrate in data set [9]: CC(=O)CC(=O)SCCNC(=O)CCNC(=O)[C@H](O)C(C)(C)COP(=O)(O)OP(=O)(O)OC[C@H]1O[C@@H](n2cnc3c(N)ncnc32)[C@H](O)[C@@H]1OP(=O)(O)O
Put plainly: purified protein. Format: biochemical, Thermosipho melanesiensis. Conditions: forward reaction, co-substrate acetate (18.75-375 mM), 100 mM Tris-HCl, 40 mM MgCl2, 5% glycerol, pH 7.5, 65 °C, abstract prints 135 μM.

Substrate in data set [10]: CC(=O)SCCNC(=O)CCNC(=O)[C@H](O)C(C)(C)COP(=O)(O)OP(=O)(O)OC[C@H]1O[C@@H](n2cnc3c(N)ncnc32)[C@H](O)[C@@H]1OP(=O)(O)O
Put plainly: purified protein. Conditions: reverse reaction, co-substrate acetoacetate (3.75-18.75 mM), 100 mM Tris-HCl, 40 mM MgCl2, 5% glycerol, pH 7.5, 65 °C. Format: biochemical, Thermosipho melanesiensis.

Data set [11] concerns the molecule itself. Nature of the data set: crystal structure; hanging drop, purified co-expressed CtfAB 5-6 mg/mL in 10 mM MOPS, 5% glycerol, 50 mM Na2SO4, 50 mM NaCl, 1 mM DTT, pH 7.5; reservoir 100 mM Na acetate pH 4.9-5.5, 6-10% PEG 3350; F42T/S45C co-crystal with 5-10 mM acetyl-CoA; space group P4(1)2(1)2.

T1 sequence (A6LM39 entry or part of it E46D, one chain of several): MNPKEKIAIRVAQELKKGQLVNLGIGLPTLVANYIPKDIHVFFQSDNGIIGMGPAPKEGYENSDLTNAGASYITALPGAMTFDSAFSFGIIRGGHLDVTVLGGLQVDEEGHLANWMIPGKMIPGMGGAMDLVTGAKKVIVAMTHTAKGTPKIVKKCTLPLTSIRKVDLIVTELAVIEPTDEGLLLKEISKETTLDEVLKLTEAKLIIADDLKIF
T3 sequence (A6LM39 entry or part of it F42T/S45C, one chain of several): as the sequence (A6LM39 entry or part of it E46D, one chain of several) above, with F42T, S45C, D46E counted along it
T4 sequence (A6LM39 1-214 E46S, one chain of several): as the sequence (A6LM39 entry or part of it E46D, one chain of several) above, with D46S counted along it

As to `CC(=O)CC(=O)SCCNC(=O)CCNC(=O)[C@H](O)C(C)(C)COP(=O)(O)OP(=O)(O)OC[C@H]1O[C@@H](n2cnc3c(N)ncnc32)[C@H](O)[C@@H]1OP(=O)(O)O` [acetoacetyl-CoA], the hydrolase activity assay entry in [1] is “converted the transferase into a hydrolase, with activity confirmed on acetoacetyl-CoA”.

As to `CC(=O)O` [acetate], the “X-ray crystal structure, 2.2 Å” value in [2] is listed as “Acetate molecules were identified in every CtfAB structure in the substrate-binding pocket”. The “Ki,B” value in data set [3] is 24700 ± 16600 µM. For the same molecule, the “X-ray crystal structure, 1.9 Å” value in data set [4] (acetate from crystallisation buffer (100 mM Na acetate), two molecules near E46, acetyl-CoA also bound) is on record as “difference density for two acetate molecules in the CtfAB F42TS45C-CoA structure”. The “X-ray crystal structure, 2.6 Å” value in data set [5] is given as “a second acetate molecule binds in the space normally occupied by the catalytic glutamate”.

Turning to `CC(=O)SCCNC(=O)CCNC(=O)[C@H](O)C(C)(C)COP(=O)(O)OP(=O)(O)OC[C@H]1O[C@@H](n2cnc3c(N)ncnc32)[C@H](O)[C@@H]1OP(=O)(O)O` [acetyl-CoA], the “X-ray crystal structure, 1.9 Å” value in data set [4] (co-crystal with 5-10 mM acetyl-CoA, site in CtfB, pantetheine part partly disordered) was “A co-crystal of the mutant CtfB F42T/S45C and acetyl-CoA was grown”. Besides, the Ki in data set [6] was 1270 ± 276 µM.

B1: T. melanesiensis CtfAB (T. mel CtfAB; WT-CtfAB) (Thermosipho melanesiensis BI429) (protein)
chain 1: T2 sequence (A6LM40 1-217)
chain 2: T2 sequence (A6LM39 1-214)
notes: co-expressed in E. coli Rosetta 2(DE3)pLysS; N-terminal 6xHis on CtfA, untagged CtfB; subunits Mr 23-25 kDa; heterotetramer (two CtfA-CtfB heterodimers) in crystals
Consider B1, for which the Km in data set [7] came to 84700 ± 15600 µM; in data set [8] it was 1655 ± 331 µM; in data set [9], 138 ± 28.8 µM; in data set [10], 322 ± 41 µM.

B2: Thermosipho melanesiensis CtfAB heterodimer (His6-CtfA with CtfB), wild type (complex)
chain 1: T2 sequence (A6LM40 1-217)
chain 2: T2 sequence (A6LM39 1-214)
notes: CoA transferase subunit A (CtfA) of Thermosipho melanesiensis, Tmel_1136, WP_012057350; as the chain of m1; 3-oxoacid CoA-transferase subunit B (CtfB) of Thermosipho melanesiensis, Tmel_1135, WP_012057349; as the chain of m2; Used for the self-association of the CtfAB heterodimer into a heterotetramer and higher oligomers; also called T. mel CtfAB; WT-CtfAB; not shown: His6, N-terminal, kept
For B2, in data set [11], the “stoichiometry N” value is 2 heterodimers in the heterotetramer.

In general, Ki refers to a measure of affinity in units of concentration, obtained from inhibition or displacement. What is called Km is the substrate concentration at which the rate is half of its maximum.
